Data published in patent publication US9846160B2, “Ganglioside GD2 as a marker and target on cancer stem cells” (Board of Regents, The University of Texas System, priority 2012, dated 2017).
Entries after “also recorded” stand apart in the source; their conditions may differ.

Columns and labels:
GD3S mRNA expression [1] = assay: GD3S mRNA expression by real-time RT-PCR in SUM159 cells; format: cell-based, Human; conditions: Sum159, 125 nM, 24 hr, dose dependent
Procedure: (§1) MDA-MB-231 cells (A) or SUM159 cells (B) (5×10^5/well) of 6 well cell culture dish was treated with 25 nM or 50 nM or 75 nM or 100 nM or 125 nM concentration of Triptolide for 24 hrs. Total RNA was extracted and GD3S expression was measured by real-time RT-PCR. (C) To measure GD2^+ cells growth inhibition, 5×10^5 MDA-MB-231 cells were plated in each well of 6 well cell culture dish and treated with 25 nM or 50 nM or 75 nM or 100 nM or 125 nM concentration of Triptolide for 48 hrs or 72 hrs. After incubation, the cells were detached with trypsin and stained with anti-GD2 antibody and Sytox-Red (for dead cells). The stained cells were analyzed on LSR-II flow cytometer. Absolute number of live cells were calculated by measuring 1000 events for True Count® beads as explained methods. […] (E) Tumors sizes from the mice in experiment in FIG. 6D were measured every week after tumor engraftment and the measurements were shown in a line graph. […] Control (n=4, black line) and Triptolide (n=4, blue line), were analyzed for cumulative survival. […]
(§2) For mRNA analysis 5×10^5 MDA-MB-231 or SUM159 breast cancer cell lines were incubated with triptolide (Alexis Biochemicals, San Diego, Calif.) at 25, 50, 75, 100 and 125 nM concentrations for 24 hrs at 37° C. in six-well cell culture dishes. […] The cells were analyzed in LSR-II flow cytometer (BD). […]

MDA-MB-231 cells [2] = assay: Tumor growth inhibition and survival, MDA-MB-231 xenografts; format: in vivo, NOD/SCID mice; conditions: for tumor growth compared to control mice: after 4 weeks; for reduction in tumor volume: in 25% of mice, 0.15 mg/kg/day
Procedure: MDA-MB-231 cells (A) or SUM159 cells (B) (5×10^5/well) of 6 well cell culture dish was treated with 25 nM or 50 nM or 75 nM or 100 nM or 125 nM concentration of Triptolide for 24 hrs. Total RNA was extracted and GD3S expression was measured by real-time RT-PCR. (C) To measure GD2^+ cells growth inhibition, 5×10^5 MDA-MB-231 cells were plated in each well of 6 well cell culture dish and treated with 25 nM or 50 nM or 75 nM or 100 nM or 125 nM concentration of Triptolide for 48 hrs or 72 hrs. After incubation, the cells were detached with trypsin and stained with anti-GD2 antibody and Sytox-Red (for dead cells). The stained cells were analyzed on LSR-II flow cytometer. Absolute number of live cells were calculated by measuring 1000 events for True Count® beads as explained methods. (D) To determine the inhibition of tumor growth, 1×10^6 MDA-MB-231 cells were subcutaneously transplanted into NOD/SCID mice (n=8, 4 mice/group). A group of the mice were treated with 0.15 mg/kg/day of triptolide and the control group was treated with PBS everyday by intra peritoneal injections. At the end of 8 weeks, mice were sacrificed, tumors were dissected out and photographed. (E) Tumors sizes from the mice in experiment in FIG. 6D were measured every week after tumor engraftment and the measurements were shown in a line graph. (F) The survival analysis was based on Kaplan-Myer estimation and groups were compared by the log-rank test. Control (n=4, black line) and Triptolide (n=4, blue line), were analyzed for cumulative survival. Survival was defined as the time (in weeks) from transplant until death. P value represents the statistical significance.
For mRNA analysis 5×10^5 MDA-MB-231 or SUM159 breast cancer cell lines were incubated with triptolide (Alexis Biochemicals, San Diego, Calif.) at 25, 50, 75, 100 and 125 nM concentrations for 24 hrs at 37° C. in six-well cell culture dishes. For the growth inhibition studies, 3×10^5 MDA-MB-231 cells cultured in a 6 well tissue culture dishes were treated with triptolide at specified concentrations for either 24 hrs or 48 hrs. After incubation the cells were detached using trypsin and stained with anti-GD2 antibody (by indirect staining protocol) and pacific-blue conjugated Annexin-V (Invitrogen, Carlsbad, Calif.) following the manufactures instructions. The cells were analyzed in LSR-II flow cytometer (BD). The absolute number of cells were counted by measuring True Count® counting beads (Invitrogen) as per manufacturer's instructions. To examine tumor growth inhibition, survival of murine tumor xenografts was determined by subcutaneous administration of 1×10^6 MDA-MB-231 cells into 8-10 week old NOD/SCID mice. After growing for 2 weeks tumor xenografts reached a size of ˜50 mm^3 Thereafter, Triptolide (0.15 mg/Kg/day) was administered IP into the mice on a daily basis. The mice were sacrificed when the control tumors reached 2 cm or higher following institutional guidelines.
After the tumors reached 50 mm^3, the mice were randomly divided into two groups, and half of the mice treated with triptolide (0.15 mg/kg/day) while the other half were treated with PBS (control mice) every day by intraperitoneal injections. […] Fifty percent of triptolide treated breast tumors were completely tumor free and there was reduction in tumor volume by >8-fold in 25% of mice (FIG. 6D). In addition, tumors in triptolide treated mice were 3-fold smaller in size and 4-fold lighter by weight (FIG. 6E, FIG. 16). […] These findings indicate that […] plays a major role in regulating […] expression and the resulting GD2^+ population. Specifically, it affects cell proliferation and tumor initiation of GD2^+ breast cancer cells and when inhibited, greatly diminishes tumor growth and increases metastasis free survival of breast cancer bearing mice.

GD3S mRNA expression [3] = assay: GD3S mRNA expression by real-time RT-PCR in MDA-MB-231 cells; format: cell-based, Human
Procedure: as §1, §2

GD3S = conditions: melanoma cancer cell line; cited from earlier work
MDA-MB-231 cells [4] = assay: GD2+ cell growth inhibition / apoptosis by flow cytometry after triptolide; format: cell-based, Human
Procedure: as §1, §2

[5] = 0.15 mg/kg/day intraperitoneal, listed as triptolide

CC(C)[C@]12O[C@H]1[C@@H]1O[C@]13[C@]1(O[C@H]1C[C@H]1C4=C(CC[C@@]13C)C(=O)OC4)[C@@H]2O [Triptolide]
inhibition of GD3S mRNA expression (GD3S mRNA expression [1]): > 95% | treated breast tumors completely tumor free (MDA-MB-231 cells [2]; 0.15 mg/kg/day intraperitoneal): Fifty | tumors lighter by weight vs control (MDA-MB-231 cells [2]; 0.15 mg/kg/day intraperitoneal): 4 fold | tumors smaller in size vs control (MDA-MB-231 cells [2]; 0.15 mg/kg/day intraperitoneal): 3 fold | tumor growth compared to control mice (MDA-MB-231 cells [2]; 0.15 mg/kg/day intraperitoneal): blocks tumor growth | tumor growth compared to control mice (MDA-MB-231 cells [2]; [5]): dramatic decrease in tumor growth | tumor mass (MDA-MB-231 cells [2]; FIG. 16, p<0.01): reduces tumor mass | reduction in tumor volume (MDA-MB-231 cells [2]; 0.15 mg/kg/day intraperitoneal): 7- to 8 fold | reduction in tumor volume (MDA-MB-231 cells [2]; [5]): > 8 fold | mice in which tumors were eliminated (MDA-MB-231 cells [2]; intra-peritoneal administration): 50% | survival of treated mice (MDA-MB-231 cells [2]; repeat experiment, Log-rank control vs triptolide p=0.0015): significantly prolonged survival | inhibition of GD3S mRNA expression (GD3S mRNA expression [3]; MDA-MB-231, 125 nM, 24 hr, dose dependent): > 95% | inhibition of GD3S expression (GD3S mRNA expression [3]; breast cancer cells, dose dependent manner (summary)): > 95% | inhibition of GD3S (GD3S): has been shown to inhibit GD3S | decrease of GD2+ cells (absolute cell counts) (MDA-MB-231 cells [4]; MDA-MB-231, different concentrations, 24 or 48 hours): dose dependent and time dependent decrease of GD2^+ cells | induction of apoptosis (MDA-MB-231 cells [4]; breast cancer cells / MDA-MB-231): induce apoptosis in MDA-MB-231 cells; also recorded: induced apoptosis in a time dependent manner
